pIC50: −log10 of the molar value. Some results are limits rather than exact numbers.

For 22 molecules, IC50 results are on record in patent US9926281B2 (priority 2014, dated 2018).

The target in one experiment is human MMP14 (Homo sapiens (Human), UniProt P50281). The settings on record: read-out: hMMP-14 potency IC50.
The target in a further experiment is rnADAMTS-5 (1-564-6H) (Rattus norvegicus, UniProt Q6TY19). The settings on record: read-out: Rat ADAMTS-5 potency IC50.
For the next experiment, the target named is human TACE (Homo sapiens (Human), UniProt P78536). To be noted: read-out: TACE potency IC50.
For another experiment, the target named is human ADAMTS-5 (Homo sapiens (Human), UniProt Q9UNA0). To be noted: read-out: hADAMTS-5 potency IC50.
In another experiment the target is human MMP13 (Homo sapiens (Human), UniProt P45452). The settings on record: read-out: hMMP-13 potency IC50.

human TACE, sequence (P78536 whole entry, looked up, change not shown): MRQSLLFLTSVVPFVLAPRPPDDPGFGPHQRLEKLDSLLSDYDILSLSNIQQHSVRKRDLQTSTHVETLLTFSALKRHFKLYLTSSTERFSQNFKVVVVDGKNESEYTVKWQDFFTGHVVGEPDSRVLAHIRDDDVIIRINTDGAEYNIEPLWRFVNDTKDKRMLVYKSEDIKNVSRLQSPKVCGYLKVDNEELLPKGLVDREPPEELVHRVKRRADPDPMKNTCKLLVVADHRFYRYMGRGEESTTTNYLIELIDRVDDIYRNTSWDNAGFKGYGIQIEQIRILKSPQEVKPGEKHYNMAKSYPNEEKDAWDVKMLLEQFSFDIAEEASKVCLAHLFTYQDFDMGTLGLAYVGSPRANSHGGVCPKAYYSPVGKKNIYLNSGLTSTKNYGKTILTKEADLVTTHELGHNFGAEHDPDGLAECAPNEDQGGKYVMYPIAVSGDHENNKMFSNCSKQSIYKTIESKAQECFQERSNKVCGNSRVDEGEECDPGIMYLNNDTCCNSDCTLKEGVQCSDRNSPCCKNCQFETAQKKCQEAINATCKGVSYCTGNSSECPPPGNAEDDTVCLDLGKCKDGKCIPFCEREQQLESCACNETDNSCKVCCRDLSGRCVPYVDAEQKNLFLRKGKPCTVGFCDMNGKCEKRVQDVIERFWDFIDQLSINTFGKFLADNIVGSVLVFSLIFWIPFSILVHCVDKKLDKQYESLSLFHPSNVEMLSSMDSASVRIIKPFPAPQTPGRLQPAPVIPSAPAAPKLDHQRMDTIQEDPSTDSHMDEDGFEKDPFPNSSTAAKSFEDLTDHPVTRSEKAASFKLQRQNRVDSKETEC
human ADAMTS-5, sequence (Q9UNA0 262-930): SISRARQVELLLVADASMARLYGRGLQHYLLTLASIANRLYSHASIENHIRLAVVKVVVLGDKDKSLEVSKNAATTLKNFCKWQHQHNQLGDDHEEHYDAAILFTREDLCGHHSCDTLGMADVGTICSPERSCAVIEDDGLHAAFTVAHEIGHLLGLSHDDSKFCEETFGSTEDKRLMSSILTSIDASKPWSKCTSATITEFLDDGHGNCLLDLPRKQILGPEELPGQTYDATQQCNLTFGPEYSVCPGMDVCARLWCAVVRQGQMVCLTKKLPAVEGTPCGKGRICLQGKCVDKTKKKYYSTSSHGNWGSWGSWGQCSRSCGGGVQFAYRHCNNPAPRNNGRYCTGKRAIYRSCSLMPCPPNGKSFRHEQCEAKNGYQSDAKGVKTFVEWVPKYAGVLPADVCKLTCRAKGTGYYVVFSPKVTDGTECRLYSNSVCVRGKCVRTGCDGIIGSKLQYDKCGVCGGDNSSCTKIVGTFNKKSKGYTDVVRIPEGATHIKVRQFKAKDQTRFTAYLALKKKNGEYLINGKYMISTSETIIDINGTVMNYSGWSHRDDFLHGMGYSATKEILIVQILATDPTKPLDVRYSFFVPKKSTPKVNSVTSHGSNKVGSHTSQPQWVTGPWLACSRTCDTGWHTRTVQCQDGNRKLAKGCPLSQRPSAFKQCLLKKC
Protocol for human ADAMTS-5: Finally, the fluorescence is read on the Envision (Perkin Elmer) after an incubation of 90 min at 37° C.
Protocol for human MMP13: Human MMP13 is preactivated by incubated the enzyme in the same buffer complemented with 1 mM freshly prepared p-Aminophenylmercuric acetate (AMPA) for 1 hour at 37° C.

For the molecule `CC(CC1(CCS(C)(=O)=O)NC(=O)NC1=O)C(=O)N1CCN(c2cc(Cl)cc(Cl)c2)CC1` (centres unmarked) [Cpd 218, 5-[3-[4-(3,5-dichlorophenyl)piperazin-1-yl]-2-methyl-3-oxo-propyl]-5-(2-methylsulfonylethyl)imidazolidine-2,4-dione], the pIC50 at human MMP14 was 5.88; at rnADAMTS-5 (1-564-6H), 7.77; at human TACE, 6.57; at human ADAMTS-5, 7.70; at human MMP13 it was 5.65.
Take `CC(=O)NCC1(CCC(=O)N2CCN(c3cc(Cl)cc(Cl)c3)CC2)NC(=O)NC1=O` (centres unmarked) [Cpd 223, N-[[4-[3-[4-(3,5-dichlorophenyl)piperazin-1-yl]-3-oxo-propyl]-2,5-dioxo-imidazolidin-4-yl]methyl]acetamide]: the pIC50 on human MMP14 is less than 4.70; at human TACE, less than 5.40; at human ADAMTS-5 it was 7.15; at human MMP13, less than 4.70.
As for `CC1(CCC(=O)N2CCN(c3cc(Cl)cc(Cl)c3)CC2)NC(=O)NC1=O` (centres unmarked) [compound 40, 5-[3-[4-(3,5-dichlorophenyl)piperazin-1-yl]-3-oxo-propyl]-5-methyl-imidazolidine-2,4-dione], the pIC50 is less than 4.70 on human MMP14, 6.63 on rnADAMTS-5 (1-564-6H), 5.57 at human TACE and less than 4.70 on human MMP13.
With `Cc1ccc(F)cc1N1CCN(C(=O)CCC2(C)NC(=O)NC2=O)CC1` (centres unmarked) [compound 51, 5-[3-[4-(5-fluoro-2-methyl-phenyl)piperazin-1-yl]-3-oxo-propyl]-5-methyl-imidazolidine-2,4-dione], the negative-log IC50 (pIC50) was less than 4.70 at human MMP14, 6.29 at rnADAMTS-5 (1-564-6H) and less than 5.44 on human TACE.
As to `O=C1NC(=O)C(CCC(=O)N2CCN(c3cc(Cl)cc(Cl)c3)CC2)(C2CC2)N1` (centres unmarked) [compound 55, 5-cyclopropyl-5-[3-[4-(3,5-dichlorophenyl)piperazin-1-yl]-3-oxo-propyl]imidazolidine-2,4-dione], the pIC50 is less than 4.70 on human MMP14, 7.43 at rnADAMTS-5 (1-564-6H), less than 5.48 on human TACE and less than 4.70 at human MMP13.
For the molecule `O=C1NC(=O)[C@](CCC(=O)N2CCN(c3cc(Cl)cc(Cl)c3)CC2)(C2CC2)N1` [compound 173, (5S)-5-cyclopropyl-5-[3-[4-(3,5-dichlorophenyl)piperazin-1-yl]-3-oxo-propyl]imidazolidine-2,4-dione], the pIC50 at human MMP14 was less than 4.70; on rnADAMTS-5 (1-564-6H) it was 7.68; on human TACE, 5.50; at human ADAMTS-5, 7.66; at human MMP13 it was less than 4.70.
As for `C[C@H]1CN(C(=O)CC[C@@]2(C3CC3)NC(=O)NC2=O)CCN1c1cccc(F)c1` [compound 203, (5S)-5-cyclopropyl-5-[3-[(3S)-4-(3-fluorophenyl)-3-methyl-piperazin-1-yl]-3-oxo-propyl]imidazolidine-2,4-dione], the pIC50 at human MMP14 was less than 5.40; on rnADAMTS-5 (1-564-6H), 7.59; at human TACE, less than 4.70; at human ADAMTS-5 it was 7.34; at human MMP13, less than 4.70.
`C[C@H]1CN(C(=O)CC[C@@]2(C3CC3)NC(=O)NC2=O)CCN1c1cc(Cl)cc(Cl)c1` [compound 204, (5S)-5-cyclopropyl-5-[3-[(3S)-4-(3,5-dichlorophenyl)-3-methyl-piperazin-1-yl]-3-oxo-propyl]imidazolidine-2,4-dione]: the pIC50 on human MMP14 was less than 4.70; on rnADAMTS-5 (1-564-6H), 7.96; at human TACE it was 5.41; on human ADAMTS-5, 7.80; at human MMP13, less than 4.92.
For `C[C@H]1CN(C(=O)CC[C@@]2(C3CC3)NC(=O)NC2=O)CCN1c1ccc(F)c(F)c1` [compound 205, (5S)-5-cyclopropyl-5-[3-[(3S)-4-(3,4-difluorophenyl)-3-methyl-piperazin-1-yl]-3-oxo-propyl]imidazolidine-2,4-dione], the pIC50 on human MMP14 was less than 5.40; on rnADAMTS-5 (1-564-6H), 7.57; on human TACE, less than 4.70; at human ADAMTS-5, 7.59; on human MMP13, less than 4.70.
For the molecule `CC(CC1(CCN)NC(=O)NC1=O)C(=O)N1CCN(c2cc(Cl)cc(Cl)c2)CC1` (centres unmarked) [compound 210, 5-(2-aminoethyl)-5-[3-[4-(3,5-dichlorophenyl)piperazin-1-yl]-2-methyl-3-oxo-propyl]imidazolidine-2,4-dione], the pIC50 was less than 4.70 at human MMP14; 6.98 on rnADAMTS-5 (1-564-6H); 5.84 at human TACE; 6.97 on human ADAMTS-5; less than 4.83 at human MMP13.
Turning to `COCC1(CC(C)C(=O)N2CCN(c3ccc(F)c(F)c3)[C@@H](C)C2)NC(=O)NC1=O` (stereo partly drawn) [compound 226, 5-[3-[(S)-4-(3,4-difluorophenyl)-3-methyl-piperazin-1-yl]-2-methyl-3-oxo-propyl]-5-(methoxymethyl)imidazolidine-2,4-dione], the pIC50 at human MMP14 is 6.01; on human TACE, less than 5.40; on human ADAMTS-5, 7.66; at human MMP13, 5.49.
As for `COCC1(CC(C)C(=O)N2CCN(c3cc(F)ccc3C)[C@@H](C)C2)NC(=O)NC1=O` (stereo partly drawn) [compound 228, 5-[3-[(3S)-4-(5-fluoro-2-methyl-phenyl)-3-methyl-piperazin-1-yl]-2-methyl-3-oxo-propyl]-5-(methoxymethyl)imidazolidine-2,4-dione], the pIC50 on human MMP14 was less than 4.70; at human TACE, less than 5.40; on human ADAMTS-5, 6.96; on human MMP13, less than 5.40.
On to `COCC1(CC(C)C(=O)N2CCN(c3cccc(F)c3)[C@@H](C)C2)NC(=O)NC1=O` (stereo partly drawn) [compound 229, 5-[3-[(3S)-4-(3-fluorophenyl)-3-methyl-piperazin-1-yl]-2-methyl-3-oxo-propyl]-5-(methoxymethyl)imidazolidine-2,4-dione], for which the pIC50 at human MMP14 was 6.17; on human TACE it was less than 5.40; at human ADAMTS-5, 7.51; on human MMP13 it was 5.41.
As for `COCC1(CC(C)C(=O)N2CCN(c3cc(F)ccc3C)CC2)NC(=O)NC1=O` (centres unmarked) [compound 230, 5-[3-[4-(5-fluoro-2-methyl-phenyl)piperazin-1-yl]-2-methyl-3-oxo-propyl]-5-(methoxymethyl)imidazolidine-2,4-dione], the pIC50 was less than 4.70 on human MMP14, 6.68 at human TACE, 7.62 at human ADAMTS-5 and less than 4.70 at human MMP13.
Turning to `COCC1(CC(C)C(=O)N2CCN(c3cccc(Cl)c3C)[C@@H](C)C2)NC(=O)NC1=O` (stereo partly drawn) [compound 232, 5-[3-[(3S)-4-(3-chloro-2-methyl-phenyl)-3-methyl-piperazin-1-yl]-2-methyl-3-oxo-propyl]-5-(methoxymethyl)imidazolidine-2,4-dione], the pIC50 is less than 4.70 on human MMP14, less than 5.40 on human TACE, 7.33 at human ADAMTS-5 and less than 4.70 at human MMP13.
On to `CC(CC1(C2CN(C(=O)OC(C)(C)C)C2)NC(=O)NC1=O)C(=O)N1CCN(c2ccc(F)c(F)c2)CC1` (centres unmarked) [compound 234, tert-butyl 3-[4-[3-[4-(3,4-difluorophenyl)piperazin-1-yl]-2-methyl-3-oxo-propyl]-2,5-dioxo-imidazolidin-4-yl]azetidine-1-carboxy late], for which the pIC50 is 8.15 at human MMP14, less than 5.40 on human TACE, 7.55 at human ADAMTS-5 and 8.25 on human MMP13.
`CC(CC1(CCNC(=O)OC(C)(C)C)NC(=O)NC1=O)C(=O)N1CCN(c2ccc(F)c(F)c2)CC1` (centres unmarked) [compound 235, tert-butyl N-[2-[4-[3-[4-(3,4-difluorophenyl)piperazin-1-yl]-2-methyl-3-oxo-propyl]-2,5-dioxo-imidazolidin-4-yl]ethyl]carbamate]: the pIC50 on human MMP14 was 7.59; at human TACE, 5.88; on human ADAMTS-5, 7.80; on human MMP13, 7.67.
On to `CC(CC1(C2CNC2)NC(=O)NC1=O)C(=O)N1CCN(c2ccc(F)c(F)c2)[C@@H](C)C1` (stereo partly drawn) [compound 247, 5-(azetidin-3-yl)-5-[3-[(3S)-4-(3,4-difluorophenyl)-3-methyl-piperazin-1-yl]-2-methyl-3-oxo-propyl]imidazolidine-2,4-dione], for which the pIC50 is less than 5.40 at human MMP14, less than 4.71 on human TACE, 7.02 on human ADAMTS-5 and less than 4.70 at human MMP13.
For `COC(CC1(C)NC(=O)NC1=O)C(=O)N1CCN(c2cc(F)cc(Cl)c2)[C@@H](C)C1` (stereo partly drawn) [compound 295, 5-[3-[(3S)-4-(3-chloro-5-fluoro-phenyl)-3-methyl-piperazin-1-yl]-2-methoxy-3-oxo-propyl]-5-methyl-imidazolidine-2,4-dione], the pIC50 on human MMP14 was 5.46; on rnADAMTS-5 (1-564-6H), 7.15; on human TACE it was less than 4.70; at human ADAMTS-5, 6.94.
For `CC(CC1(C2CC2)NC(=O)NC1=O)C(=O)N1CCN(c2cncc(Cl)c2)[C@@H](C)C1` (stereo partly drawn) [compound 314, 5-[3-[(3S)-4-(5-chloro-3-pyridyl)-3-methyl-piperazin-1-yl]-2-methyl-3-oxo-propyl]-5-cyclopropyl-imidazolidine-2,4-dione], in that order: less than 4.70, 7.47, less than 5.40 and 7.62.
As to `C[C@H]1CN(C(=O)CCC2(c3cocn3)NC(=O)NC2=O)CCN1c1cc(F)cc(Cl)c1` (stereo partly drawn) [compound 388, 5-[3-[(3S)-4-(3-chloro-5-fluoro-phenyl)-3-methyl-piperazin-1-yl]-3-oxo-propyl]-5-oxazol-4-yl-imidazolidine-2,4-dione], the pIC50 is 6.26 at human MMP14, 7.13 at rnADAMTS-5 (1-564-6H), less than 5.40 at human TACE and 7.24 at human ADAMTS-5.
As for `C[C@H]1CN(C(=O)CCC2(c3cnn(C)c3)NC(=O)NC2=O)CCN1c1cc(F)cc(F)c1` (stereo partly drawn) [compound 397, 5-[3-[(3S)-4-(3,5-difluorophenyl)-3-methyl-piperazin-1-yl]-3-oxo-propyl]-5-(1-methylpyrazol-4-yl)imidazolidine-2,4-dione], the pIC50 at human MMP14 is 7.59; at human TACE, less than 5.40; at human ADAMTS-5 it was 7.43.
